Source: PubChem BioAssay (NCI)
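How tested: cells in 96-well plates exposed to compound for 48 hours at five concentrations. Abbreviation: GI50, concentration required for 50% inhibition of growth. The concentration for full growth arrest is given as TGI.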 Where a SMILES comes first, the peptide text is derived from it. [ ]: non-standard residue; d: D form. The star is where a group is joined. Ac5c = NC1(C(=O)O)CCCC1; Boc = CC(C)(C)OC(=O)*; tBu = CC(C)(C)*

What was measured:
Assay in all cases: DTP human tumour cell line panel, 48 h
SK-MEL-2 melanoma = system: SK-MEL-2 melanoma
UO-31 renal = system: UO-31 renal
DU-145 prostate = system: DU-145 prostate
SN12C renal = system: SN12C renal
CCRF-CEM leukemia = system: CCRF-CEM leukemia
SR leukemia = system: SR leukemia
K-562 leukemia = system: K-562 leukemia
NCI-H226 lung = system: NCI-H226 lung
NCI-H522 lung = system: NCI-H522 lung
HOP-92 NSCLC = system: HOP-92 NSCLC
HL-60(TB) leukemia = system: HL-60(TB) leukemia
MOLT-4 leukemia = system: MOLT-4 leukemia
RPMI-8226 leukemia = system: RPMI-8226 leukemia
HS 578T breast = system: HS 578T breast
OVCAR-5 ovarian = system: OVCAR-5 ovarian
T-47D breast = system: T-47D breast
SK-MEL-5 melanoma = system: SK-MEL-5 melanoma
UACC-62 melanoma = system: UACC-62 melanoma
SNB-75 CNS = system: SNB-75 CNS
NCI/ADR-RES ovarian = system: NCI/ADR-RES ovarian
SK-OV-3 ovarian = system: SK-OV-3 ovarian
OVCAR-3 ovarian = system: OVCAR-3 ovarian
ACHN renal = system: ACHN renal
A498 renal = system: A498 renal
UACC-257 melanoma = system: UACC-257 melanoma
NCI-H23 lung = system: NCI-H23 lung

## CCCN1CCN(c2ccc3nc(-c4ccc5nc(-c6ccc(OCC)cc6)[nH]c5c4)[nH]c3c2)CC1
SK-MEL-2 melanoma
  GI50: 2340 nM
  TGI: 5860 nM
UO-31 renal
  GI50: 14300 nM
  TGI: 43900 nM
DU-145 prostate
  GI50: 1330 nM
  TGI: 2780 nM
SN12C renal
  GI50: > 100000 nM
  TGI: > 100000 nM
CCRF-CEM leukemia
  GI50: 629 nM
  TGI: 3580 nM
SR leukemia
  GI50: 404 nM
  TGI: 2580 nM
K-562 leukemia
  GI50: 418 nM
  TGI: 1820 nM
NCI-H226 lung
  GI50: 10100 nM
  TGI: 32900 nM
NCI-H522 lung
  GI50: 1160 nM
  TGI: 3460 nM
HOP-92 NSCLC
  GI50: 5050 nM
  TGI: 28400 nM
HL-60(TB) leukemia
  GI50: 1080 nM
  TGI: 3550 nM
MOLT-4 leukemia
  GI50: 1060 nM
  TGI: 3420 nM
RPMI-8226 leukemia
  GI50: 382 nM
  TGI: 2850 nM
HS 578T breast
  GI50: 3590 nM
  TGI: 50100 nM
OVCAR-5 ovarian
  GI50: 1880 nM
  TGI: 3360 nM
T-47D breast
  GI50: 1410 nM
  TGI: 6360 nM
SK-MEL-5 melanoma
  GI50: 1040 nM
  TGI: 2240 nM
UACC-62 melanoma
  GI50: 1070 nM
  TGI: 26700 nM
SNB-75 CNS
  GI50: 567 nM
  TGI: 29600 nM
NCI/ADR-RES ovarian
  GI50: 2840 nM
  TGI: > 100000 nM
SK-OV-3 ovarian
  GI50: 1330 nM
  TGI: 3370 nM
OVCAR-3 ovarian
  GI50: 1990 nM
  TGI: 3590 nM
ACHN renal
  GI50: 1150 nM
  TGI: 2400 nM
A498 renal
  GI50: 1300 nM
  TGI: 3010 nM

## CC(OC(C)(C)C)C1NC(=O)C(CCCCNC(=O)OC(C)(C)C)NC(=O)C(Cc2c[nH]c3ccccc23)NC(=O)C(Cc2ccccc2)NC(=O)C2(CCCC2)NC(=O)C(Cc2ccccc2)NC1=O (configuration not stated) (cyclo([Ac5c]FWK(Boc)T(tBu)F); configuration not given here)
NCI-H226 lung
  TGI: 47600 nM
HOP-92 NSCLC
  TGI: 67100 nM
UACC-257 melanoma
  TGI: 46600 nM
NCI-H23 lung
  TGI: > 100000 nM
